Source: PMC12340070, “A novel modulator of IL-6R prevents inflammation-induced preterm birth and improves newborn outcome” (EMBO Molecular Medicine, 2025)

How the values were obtained:
[1] = system: preterm birth in pregnant women; conditions: pregnancies prospectively reported following exposure; ref Hoeltzenbein et al, 2016; cited from earlier work
Excerpt: Complete or partial inhibition of the IL-6 receptor by HSJ633 reduces maternal inflammation and thus prematurity levels.

[2] = system: STAT3; experiment: STAT3 phosphorylation in HEK-Blue IL-6 cells (immunoblot); assay type: cell-based, human; conditions: for p-STAT3 phospho/total: 10 min, densitometry
Method: (§1) For RT-qPCR experiments, cells were plated in 6-well plates at 70% of confluence and starved overnight. Cells were treated respectively with HSJ633, HSJ630, HSJ631, HSJ634, HSJ635, HSJ639 (1 × 10^−6 M), or TCZ (3.44 μM, based on validated doses (Sahraoui et al, [2014])) for TNF-α expression. For hIL-1, hIL-6, and hTNF-α expression, cells were treated with HSJ633 using concentrations ranging from 10^−11 to 10^−4 M, allowing for equilibrium over 15 min. Cells were then treated with […] of IL-6 for 6 h for both experiments. Cell lysis was performed by adding RIBOzol. Samples were stored at −20 °C until analysis by quantitative PCR. To determine the degree of phosphorylation of different proteins (STAT3, ERK, AKT, and p38), HEK-Blue IL-6 cells were treated with HSJ633 (10^−6 M), TCZ (3.44 uM) or vehicle for 30 min in DMEM only. […] For p38 activation, 25 min of stimulation with IL-6 was required. The wells were charged with radioimmunoprecipitation assay buffer (RIPA) at a concentration of 1×, cOmplete EDTA-free Protease Inhibitor Cocktail final concentration 1×, and phenylmethanesulfonyl fluoride (PMSF) 1 mM. Samples were shaken for 30 min followed by centrifugation at 12,000 RPM at 4 °C for 20 min to harvest the proteins. Proteins were stored at −80 °C until analysis by immunoblotting.
(§2) A total of 15 μL of protein from HEK-Blue IL-6 cells combined with Laemmli-SDS 1× (reducing) was loaded onto SDS-PAGE gel and electro-transferred onto polyvinylidene difluoride membranes. After blocking with BSA 5%-TBST for 1 h, membranes were incubated with the following antibodies (Ab): either mouse anti-phospho-STAT3 (1:1000), rabbit anti-phospho-AKT (1:1000), rabbit anti-phospho-ERK1/2 (1:1000), rabbit anti-phospho-p38 (1:1000), rabbit anti-cytochrome c oxidase 4 (1:5000) or mouse anti-GAPDH (1:20,000, Proteintech). After washing, membranes were incubated for 1 h with secondary antibodies conjugated to HRP (1:3000 Anti-rabbit IgG, HRP-linked Antibody and 1:5000 Goat Anti-Mouse IgG (H + L)-HRP Conjugate). Samples were normalized by membrane stripping (15 g glycine, 1 g SDS, 10 mL Tween-20 at pH 2,2) and incubation with Ab (mouse anti-STAT3 (1:1000), rabbit anti-AKT (1:1000), rabbit anti-ERK1/2 (1:1000) or rabbit anti-p38 (1:1000)). After washing, membranes were incubated for 1 h with secondary antibodies conjugated to HRP (1:3000 Anti-rabbit IgG, HRP-linked antibody and 1:5000 goat anti-mouse IgG (H + L)-HRP Conjugate). Western Lightning Plus ECL or Clarity MAX Western ECL Substrate were used for protein detection using the ChemiDoc MP, and densitometric analysis were completed with ImageLab from Bio-Rad Laboratories.

[3] = system: murine IL-6R (Ba/F3-gp130-mIL-6R); conditions: ref Lokau et al, 2020; cited from earlier work
Excerpt: HSJ633 has been formulated based on the human IL-6 receptor. […] Both Tocilizumab and MR-16 act as orthosteric antagonists, competitively interfering with IL-6 for receptor occupancy (Lokau et al, [2020]). The ...

[4] = system: p38; experiment: p38 phosphorylation in HEK-Blue IL-6 cells (immunoblot); assay type: cell-based, human; conditions: for p-p38 phospho/total: densitometry
Method: For RT-qPCR experiments, cells were plated in 6-well plates at 70% of confluence and starved overnight. Cells were treated respectively with HSJ633, HSJ630, HSJ631, HSJ634, HSJ635, HSJ639 (1 × 10^−6 M), or TCZ (3.44 μM, based on validated doses (Sahraoui et al, [2014])) for TNF-α expression. For hIL-1, hIL-6, and hTNF-α expression, cells were treated with HSJ633 using concentrations ranging from 10^−11 to 10^−4 M, allowing for equilibrium over 15 min. Cells were then treated with […] of IL-6 for 6 h for both experiments. Cell lysis was performed by adding RIBOzol. Samples were stored at −20 °C until analysis by quantitative PCR. To determine the degree of phosphorylation of different proteins (STAT3, ERK, AKT, and p38), HEK-Blue IL-6 cells were treated with HSJ633 (10^−6 M), TCZ (3.44 uM) or vehicle for 30 min in DMEM only. Human IL-6 (3.86 nM) was added to the medium for 15 min to stimulate IL-6R pathways leading to STAT3, ERK, and AKT activation. For p38 activation, 25 min of stimulation with IL-6 was required. The wells were charged with radioimmunoprecipitation assay buffer (RIPA) at a concentration of 1×, cOmplete EDTA-free Protease Inhibitor Cocktail final concentration 1×, and phenylmethanesulfonyl fluoride (PMSF) 1 mM. Samples were shaken for 30 min followed by centrifugation at 12,000 RPM at 4 °C for 20 min to harvest the proteins. Proteins were stored at −80 °C until analysis by immunoblotting.
as §2

[5] = system: ERK1/2; experiment: ERK1/2 phosphorylation in HEK-Blue IL-6 cells (immunoblot); assay type: cell-based, human; conditions: for p-ERK 1/2 phospho/total: 10 min, densitometry
Method: as §1, §2

[6] = system: AKT; experiment: AKT phosphorylation in HEK-Blue IL-6 cells (immunoblot); assay type: cell-based, human; conditions: for p-AKT phospho/total: 10 min, densitometry
Method: as §1, §2

[7] = HEK-Blue IL-6, IL-6 3.86 nM, HSJ633 1 μM, TCZ 3.44 μM

In the case of “Tocilizumab: IL-6R orthosteric antagonist monoclonal antibody”, the “increase rate in preterm birth vs general population” value [1] is listed as 31.1%, the p-STAT3 phospho/total ([2]; mean (Moyenne)) is listed as 0.57 and the p-STAT3 phospho/total ([2]; replicate 2) is listed as 0.67. For the same substance, the p-STAT3 phospho/total ([2]; replicate 3) was 0.46, the “STAT3 phosphorylation, result in words” value [2, 7] was “blocked” and the “proliferation and activation of STAT3 in Ba/F3-gp130-mIL-6R” value [3] was “no hindrance on the proliferation and activation of STAT3”. The “p38 phosphorylation, result in words” value [4, 7] was “blocked”, the p-p38 phospho/total ([4]; average) was 0.66 and the p-p38 phospho/total ([4]; replicate 1) was 0.67. The p-p38 phospho/total ([4]; replicate 2) was 0.65, the “p-ERK 1/2 phospho/total” value ([5]; average) was 0.11 and the “p-ERK 1/2 phospho/total” value ([5]; replicate 2 (633-2 marked Outliers)) was 0.12. For the same substance, the “p-ERK 1/2 phospho/total” value ([5]; replicate 3) was 0.09, the “ERK1/2 phosphorylation, result in words” value [5, 7] was “blocked” and the p-AKT phospho/total ([6]; average) was 0.06. For the same substance, the p-AKT phospho/total ([6]; replicate 2) was 0.0565, the p-AKT phospho/total ([6]; replicate 3) was 0.06 and the “AKT phosphorylation, result in words” value [6, 7] was “blocked”.
